Source: publication PMC8880564, “Design, Synthesis, and Biological Evaluation of a Novel VEGFR-2 Inhibitor Based on a 1,2,5-Oxadiazole-2-Oxide Scaffold with MAPK Signaling Pathway Inhibition” (Pharmaceuticals, 2022)

What was measured:
[1] = tested on: A2780CP; assay: MTT cell viability assay; type: cell-based; details: Homo sapiens, A2780C/P, Ovarian, 48 h, ± SD of triplicates
Method: (§1) In addition, the morphological changes in 12b-treated cancer cell lines at concentrations of 6.25 and 12.50 µM are shown in Figure 6.
(§2) According to the procedures of Skehan et al. (with minor modifications), the cancer or normal cells were seeded in a 96-well plate (100 µL/well). After overnight incubation at 37 °C and 5% CO2, the cells were incubated with 50 µM of each tested compound or DMSO (0.5% v/v). After 48 h of incubation, MTT (3-(4,5-dimethylthiazoyl)-2,5-diphenyl-tetrazolium bromide) 5 mg/mL Phosphate-Buffered Saline (PBS) was added, and the plate was incubated for 4 h. After that, acidified sodium dodecyl sulfate (SDS) solution (10% SDS containing 0.01N HCl in 1× PBS) was used to solubilize formazan crystals. The absorbance was measured after 14 h of incubation at λ570–630 nm by a Biotek plate reader (Gen5™).

[2] = tested on: A2780; assay: MTT cell viability assay; type: cell-based; details: Homo sapiens, Ovarian, 48 h, ± SD of triplicates
Method: as §1, §2

[3] = tested on: HT-29; assay: MTT cell viability assay; type: cell-based; details: Homo sapiens, Colon, 48 h, ± SD of triplicates
Method: as §1, §2

[4] = tested on: HepG2; assay: MTT cell viability assay; type: cell-based; details: Homo sapiens, Liver, 48 h, ± SD of triplicates
Method: as §1, §2

[5] = tested on: MCF-7; assay: MTT cell viability assay; type: cell-based; details: Homo sapiens, MCF7, Breast, 48 h, ± SD of triplicates
Method: as §1, §2

[6] = tested on: MDA-MB-231; assay: MTT cell viability assay; type: cell-based; details: Homo sapiens, Breast, 48 h, ± SD of triplicates
Method: as §1, §2

[7] = tested on: SKOV-3; assay: MTT cell viability assay; type: cell-based; details: Homo sapiens, SK-OV-3, Ovarian, 48 h, ± SD of triplicates
Method: as §1, §2

[8] = tested on: cancer cells; assay: MTT anti-proliferative test of des-NO-releasing compounds; type: cell-based, human; details: at concentrations as high as 50 µM
Method: as §1, §2

Row | IC50 [1] [µM] | IC50 [2] [µM] | IC50 [3] [µM] | IC50 [4] [µM] | IC50 [5] [µM] | IC50 [6] [µM] | IC50 [7] [µM] | Structure (SMILES) | inhibition of the proliferation of cancer cells [8]
1 | 15.2 ± 0.1 | 10.5 ± 0.5 | 11 ± 0.2 | 14 ± 0.4 | 5.1 ± 0.4 | 16.6 ± 0.3 | 16.9 ± 0.2 | CNC(=O)c1cc(Oc2ccc(NC(=O)Nc3ccc(Cl)c(C(F)(F)F)c3)cc2)ccn1 [Sorafenib, sorafenib, reference compound] | –
2 | – | – | – | – | – | – | – | Cc1nn(-c2ccc(Br)cc2)c2nc(C(F)(F)F)nc(Nc3ccc(N)cc3)c12 [15b, N1-(1-(4-bromophenyl)-3-methyl-6-(trifluoromethyl)-1H-pyrazolo[3,4-d]pyrimidin-4-yl)benzene-1,4-diamine] | did not inhibit the proliferation of cancer cells
3 | – | – | – | – | – | – | – | Nc1ccc(Nc2nc(C(F)(F)F)nc3c2cnn3-c2ccc(Br)cc2)cc1 [15a, N1-(1-(4-bromophenyl)-6-(trifluoromethyl)-1H-pyrazolo[3,4-d]pyrimidin-4-yl)benzene-1,4-diamine] | did not inhibit the proliferation of cancer cells
